The values below come from patent publication US8796268B2, “Heteroaryls and uses thereof” (Millennium Pharmaceuticals, Inc., priority 2010, dated 2014).

What all share (assay type): biochemical
Experiment [1] addresses T1, Human PI3K alpha (Homo sapiens, UniProt P42336).
T1 construct: His (N); host or cells: SF9 insect cells (baculovirus)
The experiment in a line: Human PI3K alpha enzyme assay (HTRF). To be noted: for IC50: read-out: PI3Kalpha IC50.

Experiment [2] addresses T2, Human PI3K beta (Homo sapiens, UniProt P42338).
T2 construct: His (N); host or cells: SF9 insect cells (baculovirus)
Description: Human PI3K beta enzyme assay (HTRF). To be noted: for IC50: read-out: PI3 Kbeta IC50. In a few lines:
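Compounds were mixed with 25 uM ATP, then with 3.5 uM di-C8 PI(4,5)P2 and His-tagged PI3K isoform (β 5.25 nM, δ 0.75 nM, γ 5 nM) at pH 7.00. After 30 min at room temperature, EDTA stopped the reaction and PIP3 was measured by HTRF over 1 h.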
On the technique in general: In TR-FRET formats the signal depends on donor and acceptor labels being close together.

Experiment [3] concerns the target T3, Human PI3K delta (Homo sapiens, UniProt O00329).
T3 construct: His (N); host or cells: SF9 insect cells (baculovirus)
Description: Human PI3K delta enzyme assay (HTRF). Particulars: concentration not given, b1389 states 1.0 μM for PI3K δ and γ; for inhibition at 1 µM: read-out: p110 delta Percent Inhibition. An excerpt:
(§1) The catalytic subunits of PI3Ks are cloned into either pDEST8(p110 alpha) or pDEST10(p110beta, p110delta, and p110gamma) as N-terminal His tagged fusion proteins using the Gateway system (Invitrogen, catalog#11804-010 for pDEST8 and 11806-015 for pDEST10). The sequences are verified before recombinant protein expression using the Baculovirus Expression System with Gateway® Technology. The accession numbers for the subunits are as follows: • p110 alpha (GB:U79143) • p110beta (GB: S67334) • p110delta (GB: U86453) • p110gamma (GB: X83368) • The regulatory subunits of PI3Ks are cloned into pDEST8 as un-tagged protein using the Gateway system (Catalog#11804-010). The sequences are verified before recombinant protein expression using the Baculovirus Expression System with Gateway® Technology. The accession numbers for the subunits are as following: • p85 alpha (GB: BC030815) • p101(GB: AB028925) • VPS34 (accession number GB:BC033004) is cloned into pDEST20—Thombin as N-terminal GST tagged fusion proteins using the Gateway system (Invitrogen, catalog#11804-013). The sequences are verified before recombinant protein expression using the Baculovirus Expression System with Gateway® Technology.
(§2) For expression of the p110 complexes, the p85 (MOI of 4) is co-infected with p110 alpha, beta, and delta respectively (1MOI) in SF9 cells and harvested at 60 hours post co-infection. P110 gamma was infected at 1 MOI and harvested at 60 hours post infection.
(§3) For purification, PI3Ks are purified by Ni-NTA Agarose (Qiagen #30250) followed by Mono Q 10/100 GL (Ge Healthcare #17-5167-01). VPS34 is purified by Glutathione Sepharose 4 Fast Flow (GE Healthcare #17-5132-03) followed by HiTrap Q (GE Healthcare #17-1153-01).
(§4) 0.5 uL compounds in DMSO are added to wells of a 384 well microtitre plate (Corning 3575). At room temperature: 10 ul PI3K reaction buffer (50 mM Hepes, 5 mM DTT, 150 mM NaCl, 10 mM beta-glycerophosphate, 10 mM MgCl2, 0.25 mM sodium cholate and 0.001% CHAPS, pH 7.00) containing ATP (25 uM, Promega) is added followed immediately by 10 ul PI3K reaction buffer containing di-C8 P1(4,5)P2 (3.5 uM, CellSignals) and PI3Kalpha (0.4875 nM, Millennium Protein Sciences Group) and the mixture is incubated with shaking at room temperature for 30 minutes. Then 5 ul PI3K stop mix (50 mM Hepes, 5 mM DTT, 150 mM NaCl, 0.01% Tween-20, 15 mM EDTA and 25 nM biotin-PI(3,4,5)P3 (Echelon) is added to quench the reaction followed immediately by addition of 5 ul HTRF detection mix (50 mM Hepes, 5 mM DTT, 150 mM NaCl, 0.01% Tween-20, 40 mM KF, 1.0 nM GST:GRP-1 PH domain (Millennium Protein Sciences Group), 15 nM Streptavidin-XL (CisBio) and 0.375 nM anti-GST Eu++ antibody (CisBio) at pH 7.00). The plates are then incubated for 1 hour at room temperature with shaking and then read on a BMG PheraStar Plus reader.
(§5) 2) Human PI3K beta, delta and gamma isoforms are tested using the procedure described for PI3K alpha above but with the following changes: PI3K beta (5.25 nM), PI3K delta (0.75 nM) and PI3K gamma (5 nM). All isoforms supplied by Millennium Protein Science Group.
(§6) For the assay methods described above, test compound percent inhibition, at various concentrations, is calculated relative to control (DMSO and EDTA) treated samples. Compound concentration versus percent inhibition curves are fitted to generate IC50 values. One skilled in the art will appreciate that the values generated either as percentage inhibition at a single concentration or IC50 values are subject to experimental variation.

Experiment [4] deals with T4, Human PI3K gamma (Homo sapiens, UniProt P48736).
T4 construct: His (N); host or cells: SF9 insect cells (baculovirus)
T4 sequence (P48736 whole entry): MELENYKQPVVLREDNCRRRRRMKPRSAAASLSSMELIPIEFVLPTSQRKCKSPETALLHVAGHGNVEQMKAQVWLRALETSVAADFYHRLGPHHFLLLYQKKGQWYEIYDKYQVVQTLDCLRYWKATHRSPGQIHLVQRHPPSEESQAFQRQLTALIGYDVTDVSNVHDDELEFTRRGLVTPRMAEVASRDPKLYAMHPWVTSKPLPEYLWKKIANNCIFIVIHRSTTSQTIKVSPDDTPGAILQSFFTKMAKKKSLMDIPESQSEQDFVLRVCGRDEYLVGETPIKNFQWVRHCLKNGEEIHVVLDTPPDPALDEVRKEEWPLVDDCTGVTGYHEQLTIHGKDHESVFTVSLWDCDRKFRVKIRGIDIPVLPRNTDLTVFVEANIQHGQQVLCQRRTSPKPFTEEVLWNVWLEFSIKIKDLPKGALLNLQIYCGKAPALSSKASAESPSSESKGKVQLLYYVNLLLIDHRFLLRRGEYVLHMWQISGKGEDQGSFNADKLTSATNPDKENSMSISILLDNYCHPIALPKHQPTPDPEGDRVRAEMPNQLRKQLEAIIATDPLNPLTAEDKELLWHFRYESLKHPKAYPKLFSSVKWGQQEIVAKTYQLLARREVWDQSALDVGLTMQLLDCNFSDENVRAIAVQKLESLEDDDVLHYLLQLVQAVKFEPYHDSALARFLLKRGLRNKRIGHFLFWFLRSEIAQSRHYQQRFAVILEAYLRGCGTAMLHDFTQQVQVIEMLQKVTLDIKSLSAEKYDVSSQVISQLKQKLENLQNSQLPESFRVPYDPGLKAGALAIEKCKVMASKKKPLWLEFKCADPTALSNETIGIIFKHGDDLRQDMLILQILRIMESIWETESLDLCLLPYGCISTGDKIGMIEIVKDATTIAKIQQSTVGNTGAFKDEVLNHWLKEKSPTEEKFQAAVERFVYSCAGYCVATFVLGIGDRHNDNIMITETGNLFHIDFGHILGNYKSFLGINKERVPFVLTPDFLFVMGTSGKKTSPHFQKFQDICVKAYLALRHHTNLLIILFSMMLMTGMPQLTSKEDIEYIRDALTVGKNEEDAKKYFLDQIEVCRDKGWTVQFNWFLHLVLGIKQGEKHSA
The experiment in a line: Human PI3K gamma enzyme assay (HTRF). To be noted: concentration not given, b1389 states 1.0 μM for PI3K δ and γ; for inhibition at 1 µM: read-out: p110 gamma Percent Inhibition.
Description: as §1, §2, §3, §4, §5, §6

Setting [5] is: concentration not given, b1387 states 1.1 μM for PI3K α and β, read-out: p110 alpha Percent Inhibition.
The mark [6] stands for this setting: concentration not given, b1387 states 1.1 μM for PI3K α and β, read-out: p110 beta Percent Inhibition.
[7] abbreviates: concentration not given, b1387 states 1.1 μM for PI3K α and β.
Where [8] appears, read: at a 1.1 μM concentration, read-out: PI3Kα Percent Inhibition.
Setting [9] is: at a 1.1 μM concentration, read-out: PI3β Percent Inhibition.

Read-outs that look alike come from different tables or passages of the source.

T2 sequence (P42338 whole entry): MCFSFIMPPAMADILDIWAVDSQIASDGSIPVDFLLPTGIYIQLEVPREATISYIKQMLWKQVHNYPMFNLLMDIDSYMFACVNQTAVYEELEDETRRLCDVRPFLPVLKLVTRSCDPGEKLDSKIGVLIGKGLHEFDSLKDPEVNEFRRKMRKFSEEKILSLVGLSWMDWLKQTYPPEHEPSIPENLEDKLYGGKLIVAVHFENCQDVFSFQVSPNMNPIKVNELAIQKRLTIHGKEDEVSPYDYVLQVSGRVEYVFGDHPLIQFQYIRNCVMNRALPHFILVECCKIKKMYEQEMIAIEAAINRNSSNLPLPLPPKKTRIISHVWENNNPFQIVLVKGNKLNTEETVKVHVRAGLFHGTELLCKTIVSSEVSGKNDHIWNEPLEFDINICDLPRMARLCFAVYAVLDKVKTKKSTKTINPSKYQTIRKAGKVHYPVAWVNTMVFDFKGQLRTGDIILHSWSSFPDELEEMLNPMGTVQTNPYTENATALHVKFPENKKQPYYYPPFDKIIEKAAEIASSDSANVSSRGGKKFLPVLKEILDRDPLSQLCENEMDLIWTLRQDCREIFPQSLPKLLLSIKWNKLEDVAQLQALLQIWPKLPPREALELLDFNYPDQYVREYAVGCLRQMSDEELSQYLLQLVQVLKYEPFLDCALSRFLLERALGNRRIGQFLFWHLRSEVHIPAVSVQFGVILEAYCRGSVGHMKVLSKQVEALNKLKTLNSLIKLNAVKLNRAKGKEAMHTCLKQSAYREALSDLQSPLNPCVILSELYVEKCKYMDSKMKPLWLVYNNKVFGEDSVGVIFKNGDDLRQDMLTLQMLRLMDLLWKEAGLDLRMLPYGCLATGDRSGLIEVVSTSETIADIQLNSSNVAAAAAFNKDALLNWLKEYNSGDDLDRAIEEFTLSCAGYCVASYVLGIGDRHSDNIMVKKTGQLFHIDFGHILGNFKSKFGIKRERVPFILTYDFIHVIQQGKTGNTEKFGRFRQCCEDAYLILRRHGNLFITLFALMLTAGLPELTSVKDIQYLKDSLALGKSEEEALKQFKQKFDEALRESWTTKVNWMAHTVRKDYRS
T2 sequence (P27986 whole entry partner): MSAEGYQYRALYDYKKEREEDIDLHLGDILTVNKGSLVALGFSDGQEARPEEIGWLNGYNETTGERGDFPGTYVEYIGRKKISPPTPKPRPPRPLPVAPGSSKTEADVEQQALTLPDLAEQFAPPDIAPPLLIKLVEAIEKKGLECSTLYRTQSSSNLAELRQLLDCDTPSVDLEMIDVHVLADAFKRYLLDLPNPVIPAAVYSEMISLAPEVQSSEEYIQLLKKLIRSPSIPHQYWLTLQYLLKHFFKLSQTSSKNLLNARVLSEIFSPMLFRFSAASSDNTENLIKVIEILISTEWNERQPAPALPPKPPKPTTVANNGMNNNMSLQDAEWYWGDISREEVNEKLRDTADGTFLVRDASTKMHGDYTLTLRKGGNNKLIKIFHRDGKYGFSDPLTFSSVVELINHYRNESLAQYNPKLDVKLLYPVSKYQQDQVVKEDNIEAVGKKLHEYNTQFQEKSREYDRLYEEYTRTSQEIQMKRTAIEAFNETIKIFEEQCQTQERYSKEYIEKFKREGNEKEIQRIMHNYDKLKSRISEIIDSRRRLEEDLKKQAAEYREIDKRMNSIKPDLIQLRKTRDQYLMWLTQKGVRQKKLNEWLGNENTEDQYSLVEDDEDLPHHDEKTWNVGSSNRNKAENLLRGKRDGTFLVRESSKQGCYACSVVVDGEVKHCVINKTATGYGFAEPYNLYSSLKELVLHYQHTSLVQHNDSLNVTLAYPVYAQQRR
T3 sequence (O00329 whole entry): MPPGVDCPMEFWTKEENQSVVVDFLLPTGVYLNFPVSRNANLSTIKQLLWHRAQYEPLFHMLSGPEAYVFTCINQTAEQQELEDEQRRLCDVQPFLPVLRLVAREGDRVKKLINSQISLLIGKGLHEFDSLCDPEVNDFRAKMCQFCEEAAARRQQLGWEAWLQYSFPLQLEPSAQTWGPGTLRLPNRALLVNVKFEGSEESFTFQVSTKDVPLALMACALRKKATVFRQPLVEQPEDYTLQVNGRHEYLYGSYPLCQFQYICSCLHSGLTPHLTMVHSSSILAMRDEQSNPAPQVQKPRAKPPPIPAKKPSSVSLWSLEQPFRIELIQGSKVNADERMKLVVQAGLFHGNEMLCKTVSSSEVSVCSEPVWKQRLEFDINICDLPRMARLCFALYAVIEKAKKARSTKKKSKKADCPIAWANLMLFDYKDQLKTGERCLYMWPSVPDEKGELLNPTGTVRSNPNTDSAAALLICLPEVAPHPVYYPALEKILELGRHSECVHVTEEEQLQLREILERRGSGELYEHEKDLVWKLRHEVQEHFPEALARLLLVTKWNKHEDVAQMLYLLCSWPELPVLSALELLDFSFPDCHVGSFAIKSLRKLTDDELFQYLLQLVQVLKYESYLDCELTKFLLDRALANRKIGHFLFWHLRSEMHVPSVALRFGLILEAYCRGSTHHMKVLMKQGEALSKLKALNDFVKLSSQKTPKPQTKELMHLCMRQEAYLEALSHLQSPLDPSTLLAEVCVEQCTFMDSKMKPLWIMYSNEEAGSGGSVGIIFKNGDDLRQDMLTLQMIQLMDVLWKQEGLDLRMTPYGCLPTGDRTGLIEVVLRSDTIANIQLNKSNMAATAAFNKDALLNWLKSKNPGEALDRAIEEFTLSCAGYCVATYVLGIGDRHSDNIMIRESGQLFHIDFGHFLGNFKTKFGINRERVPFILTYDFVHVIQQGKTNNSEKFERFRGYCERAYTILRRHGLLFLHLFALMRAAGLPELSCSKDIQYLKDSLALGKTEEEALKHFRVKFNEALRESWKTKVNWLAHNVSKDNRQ
T3 sequence (P27986 whole entry partner): as the sequence (P27986 whole entry partner) above
T1 sequence (P42336 whole entry): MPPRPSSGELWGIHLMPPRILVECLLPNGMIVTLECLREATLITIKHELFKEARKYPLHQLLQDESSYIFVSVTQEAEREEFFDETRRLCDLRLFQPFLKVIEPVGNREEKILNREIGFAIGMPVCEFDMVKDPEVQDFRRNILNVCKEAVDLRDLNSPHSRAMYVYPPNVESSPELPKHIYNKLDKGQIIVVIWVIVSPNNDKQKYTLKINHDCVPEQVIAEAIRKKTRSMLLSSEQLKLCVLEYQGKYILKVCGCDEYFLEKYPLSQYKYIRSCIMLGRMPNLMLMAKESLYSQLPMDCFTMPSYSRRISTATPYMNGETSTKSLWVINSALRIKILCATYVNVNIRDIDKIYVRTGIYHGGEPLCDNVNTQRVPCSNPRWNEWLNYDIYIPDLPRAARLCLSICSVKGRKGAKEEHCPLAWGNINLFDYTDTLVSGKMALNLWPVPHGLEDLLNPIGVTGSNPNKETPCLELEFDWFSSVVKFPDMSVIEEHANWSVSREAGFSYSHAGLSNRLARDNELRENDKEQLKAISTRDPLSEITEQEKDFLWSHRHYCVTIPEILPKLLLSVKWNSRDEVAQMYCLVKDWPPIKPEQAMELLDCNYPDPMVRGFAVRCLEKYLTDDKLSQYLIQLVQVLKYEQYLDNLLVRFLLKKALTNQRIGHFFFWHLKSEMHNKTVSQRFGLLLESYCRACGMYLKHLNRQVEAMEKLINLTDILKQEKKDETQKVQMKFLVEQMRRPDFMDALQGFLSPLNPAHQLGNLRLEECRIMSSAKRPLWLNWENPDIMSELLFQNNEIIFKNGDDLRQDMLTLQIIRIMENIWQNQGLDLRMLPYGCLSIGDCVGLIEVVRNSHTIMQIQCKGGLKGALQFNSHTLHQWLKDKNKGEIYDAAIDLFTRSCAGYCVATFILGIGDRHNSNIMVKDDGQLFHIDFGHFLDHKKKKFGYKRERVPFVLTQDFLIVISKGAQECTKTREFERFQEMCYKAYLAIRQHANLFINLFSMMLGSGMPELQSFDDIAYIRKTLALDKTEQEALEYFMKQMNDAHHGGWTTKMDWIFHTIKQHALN
T1 sequence (P27986 whole entry partner): as the sequence (P27986 whole entry partner) above

For the compound `CC(=O)Nc1cc(-c2cc([C@@H](c3ccc(Cl)cc3)N3CCC3)c(-c3nnc[nH]3)s2)ccn1` (single isomer, unassigned) [Compound 176], the figures for the inhibition at 1.1 µM in experiment [1] (setting [5]) and in experiment [2] (setting [6]) were 76% and 109%, respectively. Moreover, the inhibition at 1 µM in experiment [3] was 109%; in experiment [4], 35%.
As for `CC(=O)Nc1cc(-c2cc(C(c3ccc(Cl)cc3)N3CCC[C@H]3CO)c(-c3nnc[nH]3)s2)ccn1` (single isomer, unassigned) [Compound 192], the “p110 alpha Percent Inhibition” value in experiment [1] (setting [7]) is given as 48%. For the same compound, the “p110 beta Percent Inhibition” value in experiment [2] (setting [7]) is 90%. The “p110 delta Percent Inhibition” value in experiment [3] is 100%. Moreover, the “p110 gamma Percent Inhibition” value in experiment [4] is 12%.
On to `CC(=O)Nc1cc(-c2cc([C@@H](c3ccc(Cl)cc3)N(C)C)c(-c3nnc[nH]3)s2)ccn1` (single isomer, unassigned) [Compound 204], for which the inhibition at 1.1 µM in experiment [1] (setting [5]) is 70%; in experiment [2] (setting [6]), 101%. Further, the values for the inhibition at 1 µM in experiment [3] and in experiment [4] were 90% and 25%, respectively.
The like results for `CC(=O)Nc1cc(-c2cc([C@H](c3ccc(Cl)cc3)N3CCC3)c(-c3nnc[nH]3)s2)ccn1` (single isomer, unassigned) [Compound 241] were, in that order, 59%, 107%, 104% and 27%.
On to `CC(=O)Nc1cc(-c2cc(C(c3ccc(Cl)cc3)N3CCC[C@H]3CO)c(-c3nnc[nH]3)s2)ccn1` (single isomer, unassigned) [Compound 259], for which the “p110 alpha Percent Inhibition” value in experiment [1] (setting [7]) was found to be 69%. In addition, the inhibition at 1.1 µM in experiment [2] (setting [6]) amounted to 100%. Further, the inhibition at 1 µM in experiment [3] is 101%. In experiment [4], the “p110 gamma Percent Inhibition” value is 25%.
On to `CC(=O)Nc1cc(-c2cc([C@H](c3ccc(Cl)cc3)N(C)C)c(-c3nnc[nH]3)s2)ccn1` (single isomer, unassigned) [Compound 261], for which the inhibition at 1.1 µM was found to be 79% in experiment [1] (setting [5]) and 113% in experiment [2] (setting [6]). Besides, the inhibition at 1 µM worked out at 105% in experiment [3] and 33% in experiment [4].
For the compound `COc1ccc(C(O)c2cc(-c3ccncc3)sc2-c2nnc[nH]2)cc1` (stereo not drawn) [Compound 85, (4-methoxyphenyl)[5-pyridin-4-yl-2-(4H-1,2,4-triazol-3-yl)-3-thienyl]methanol], the values for the IC50 in experiment [1] and in experiment [2] were above 1000 nM and below 100 nM, respectively.
Turning to `CC(=O)Nc1cc(-c2cc(C(c3ccc(Cl)cc3)N(C)C)c(-c3nnc[nH]3)s2)ccn1` (stereo not drawn) [Compound 86], the IC50 in experiment [1] is 100 to 1000 nM; in experiment [2] it was below 100 nM.
In the same order, the values of `c1ccc2cc(Cc3nc(-c4ccncc4)sc3-c3nnc[nH]3)ccc2c1` [Compound 87] are above 1000 nM and below 100 nM.
For the compound `N#Cc1c(-c2ccnnc2)sc(-c2nnc[nH]2)c1Cc1ccc2ccccc2c1` [Compound 88, 4-(2-naphthylmethyl)-2-pyridazin-4-yl-5-(4H-1,2,4-triazol-3-yl)thiophene-3-carbonitrile], the IC50 is above 1000 nM in experiment [1] and below 100 nM in experiment [2].
Take `N#Cc1c(-c2ccnnc2)sc(-c2nnc[nH]2)c1Cc1ccc(Cl)cc1` [Compound 89]: the IC50 in experiment [1] is above 1000 nM; in experiment [2] it was 100 to 1000 nM.
Regarding `CC(=O)Nc1cc(-c2cc(C(c3ccc(Cl)cc3)N3CCC3)c(-c3nnc[nH]3)s2)ccn1` (stereo not drawn) [Compound 90], the IC50 is 100 to 1000 nM in experiment [1] and below 100 nM in experiment [2].
The like results for `O=c1ccnc(-c2sc(-c3ccncc3)nc2Cc2ccc(Cl)cc2)[nH]1` [Compound 92, 2-(4-(4-chlorobenzyl)-2-(pyridin-4-yl)thiazol-5-yl)pyrimidin-4(3H)-one] were, in that order, above 1000 nM and below 100 nM.
`O=C(O)c1sc(N2CCOCC2)nc1Cc1ccc(Cl)cc1F` [Compound 101]: the inhibition at 1.1 µM in experiment [1] (setting [8]) stood at 30%; in experiment [2] (setting [9]), 105%.
Take `O=C(O)c1sc(N2CCOCC2)nc1Cc1ccc2c(c1)OCCO2` [Compound 110, 4-(2,3-dihydro-1,4-benzodioxin-6-ylmethyl)-2-(morpholin-4-yl)-1,3-thiazole-5-carboxylic acid]: the results for the inhibition at 1.1 µM in experiment [1] (setting [8]) and in experiment [2] (setting [9]) were 5% and 41%, respectively.
Regarding `CC(=O)Nc1cc(-c2cc(C(O)(c3ccc(Cl)cc3)C3CCN(C)CC3)c(-c3nnc[nH]3)s2)ccn1` (stereo not drawn) [Compound 237, N-(4-{4-[(4-chlorophenyl)(hydroxy)(1-methylpiperidin-4-yl)methyl]-5-(4H-1,2,4-triazol-3-yl)-2-thienyl}pyridin-2-yl)acetamide], the figures for the inhibition at 1.1 µM in experiment [1] (setting [5]) and in experiment [2] (setting [6]) were 61% and 89%, respectively.
In the case of `N#Cc1c(N2CCOCC2)sc(C(=O)O)c1Cc1ccc2ccc(F)cc2c1` [Compound 287], in experiment [3], the inhibition at 1 µM amounted to 112%.
Same read-out and setting: the result for `N#Cc1c(N2CCOCC2)sc(C(=O)O)c1Cc1ccc2ccccc2c1F` [Compound 293] reads 110%.
As for `N#Cc1c(N2CCOCC2)sc(C(=O)O)c1Cc1cc2ccccc2cc1F` [Compound 295], in experiment [3], the inhibition at 1 µM amounted to 112%.
Same read-out and setting: the same measure for `N#Cc1c(N2CCOCC2)sc(C(=O)O)c1Cc1cc(F)c(Cl)cc1F` [Compound 300]: 97%.
For `N#Cc1c(N2CCOCC2)sc(C(=O)O)c1Cc1ccc2c(c1)CCCC2` [Compound 305], the inhibition at 1 µM in experiment [3] is 74%.
On the same count and under the same terms, the same measure for `N#Cc1c(N2CCOCC2)sc(C(N)=O)c1C(F)(F)c1ccc2ccccc2c1` [Compound 307]: 62%.
Take `N#Cc1c(N2CCOCC2)sc(C(=O)O)c1C(F)(F)c1ccc2ccccc2c1` [Compound 308]: the inhibition at 1 µM in experiment [3] is 92%.
Same read-out and setting: the same measure for `N#Cc1c(N2CCOCC2)sc(C(=O)O)c1Cc1cc(F)c2ccccc2c1` [Compound 324]: 113%.
As for `COC(c1ccc2ccccc2c1)c1c(C(=O)O)sc(N2CCOCC2)c1C#N` (stereo not drawn) [Compound 337], the “p110 delta Percent Inhibition” value in experiment [3] amounted to 46%.
As to `N#Cc1c(N2CCOCC2)sc(C(=O)O)c1Cc1ccc2c(F)cccc2c1` [Compound 343], in experiment [3], the inhibition at 1 µM is 113%.
`N#Cc1c(N2CCOCC2)sc(C(=O)O)c1C(F)c1ccc2ccccc2c1` (stereo not drawn) [Compound 345]: in experiment [1] (setting [7]), the “p110 alpha Percent Inhibition” value is recorded as 64%. Besides, in experiment [3], the inhibition at 1 µM is 83%.
For `N#Cc1c(N2CCOCC2)sc(-c2nnn[nH]2)c1C(F)(F)c1ccc2ccccc2c1` [Compound 349], the inhibition at 1 µM in experiment [3] stood at 96%.

A word on the IC50: it is the concentration that inhibits the measured activity by half.
